Measurements published in BindingDB's records for doi:10.1021/jm060290f (Cardiff University, 2006).
pIC50: −log10 of the molar value.

Biological target: sterol 24-C-methyltransferase (Leishmania major)
Test: Inhibition of Leishmania major recombinant 24-SMT

| Structure (SMILES) | pIC50 |
| --- | --- |
| C[C@H](C(=O)NCCCC[C@H](NC(=O)OCc1ccccc1)C(=O)O)[C@H]1CC[C@H]2C3CC=C4C[C@@H](O)CC[C@]4(C)[C@H]3CC[C@]12C (some centres not stated) [3beat-ol-23,24-bisnor-5-en-22-(6-(2-Z-amino)hexanoic acid) amide] | < 4.00 |
| CC(=O)O[C@H]1CC[C@@]2(C)C(=CCC3[C@@H]4CC[C@H]([C@H](C)C(=O)NC[C@H](NC(=O)OC(C)(C)C)C(=O)O)[C@@]4(C)CC[C@@H]32)C1 (stereo partly drawn) [3beta-acetoxy-23,24-bisnor-5-en-22-(3-(2-Boc-amino)propanoic acid) amide] | < 4.00 |
| CC(=O)O[C@H]1CC[C@@]2(C)C(=CCC3[C@@H]4CC[C@H]([C@H](C)CNC[C@H](NC(=O)OC(C)(C)C)C(=O)O)[C@@]4(C)CC[C@@H]32)C1 (stereo partly drawn) [3beta-acetoxy-23,24-bisnor-5-en-22-(3-(2-Boc-amino)propanoic acid) amine] | < 4.00 |
| CC(=O)O[C@H]1CC[C@@]2(C)C(=CCC3[C@@H]4CC[C@H]([C@H](C)C(=O)NCC[C@H](NC(=O)OC(C)(C)C)C(=O)O)[C@@]4(C)CC[C@@H]32)C1 (stereo partly drawn) [3beta-acetoxy-23,24-bisnor-5-en-22-(4-(2-Boc-amino)butanoic acid) amide] | < 4.00 |
| CC(=O)O[C@H]1CC[C@@]2(C)C(=CCC3[C@@H]4CC[C@H]([C@H](C)CNCC[C@H](NC(=O)OC(C)(C)C)C(=O)O)[C@@]4(C)CC[C@@H]32)C1 (stereo partly drawn) [3beta-acetoxy-23,24-bisnor-5-en-22-(4-(2-Boc-amino)butanoic acid) amine] | < 4.00 |
| CC(=O)O[C@H]1CC[C@@]2(C)C(=CCC3[C@@H]4CC[C@H]([C@H](C)C(=O)NCCC[C@H](NC(=O)OCc5ccccc5)C(=O)O)[C@@]4(C)CC[C@@H]32)C1 (stereo partly drawn) [3beta-acetoxy-23,24-bisnor-5-en-22-(5-(2-Z-amino)pentanoic acid) amide] | < 4.00 |
| CC(=O)O[C@H]1CC[C@@]2(C)C(=CCC3[C@@H]4CC[C@H]([C@H](C)CNCCC[C@H](NC(=O)OCc5ccccc5)C(=O)O)[C@@]4(C)CC[C@@H]32)C1 (stereo partly drawn) [3beta-acetoxy-23,24-bisnor-5-en-22-(5-(2-Z-amino)pentanoic acid) amine] | < 4.00 |
| CC(=O)O[C@H]1CC[C@@]2(C)C(=CCC3[C@@H]4CC[C@H]([C@H](C)C(=O)NCCCC[C@H](NC(=O)OCc5ccccc5)C(=O)OCc5ccccc5)[C@@]4(C)CC[C@@H]32)C1 (stereo partly drawn) [3beta-acetoxy-23,24-bisnor-5-en-22-(6-(2-Z-amino)benzyl hexanoate) amide] | < 4.00 |
| CC(=O)O[C@H]1CC[C@@]2(C)C(=CCC3[C@@H]4CC[C@H]([C@H](C)CNCCCC(=O)O)[C@@]4(C)CC[C@@H]32)C1 (stereo partly drawn) [3beta-acetoxy-23,24-bisnor-chol-5-en-22-(butanoic acid) amine] | < 4.00 |
| COC(=O)CNC[C@@H](C)[C@H]1CC[C@H]2C3CC=C4C[C@@H](OC(C)=O)CC[C@]4(C)[C@H]3CC[C@]12C (stereo partly drawn) [3beta-acetoxy-23,24-bisnor-chol-5-en-22-(methyl ethanoate) amine] | < 4.00 |
| COC(=O)CCCCCCCNC[C@@H](C)[C@H]1CC[C@H]2C3CC=C4C[C@@H](OC(C)=O)CC[C@]4(C)[C@H]3CC[C@]12C (stereo partly drawn) [3beta-acetoxy-23,24-bisnor-chol-5-en-22-(methyl octanoate) amine] | < 4.00 |
| COC(=O)CCCCNC[C@@H](C)[C@H]1CC[C@H]2C3CC=C4C[C@@H](OC(C)=O)CC[C@]4(C)[C@H]3CC[C@]12C (stereo partly drawn) [3beta-acetoxy-23,24-bisnor-chol-5-en-22-(methyl pentanoate) amine] | < 4.00 |
| COC(=O)CCNC[C@@H](C)[C@H]1CC[C@H]2C3CC=C4C[C@@H](OC(C)=O)CC[C@]4(C)[C@H]3CC[C@]12C (stereo partly drawn) [3beta-acetoxy-23,24-bisnor-chol-5-en-22-(methyl propanoate) amine] | < 4.00 |
| CC(=O)O[C@H]1CC[C@@]2(C)C(=CCC3[C@@H]4CC[C@H]([C@H](C)CNCCCCCCCC(=O)O)[C@@]4(C)CC[C@@H]32)C1 (stereo partly drawn) [3beta-acetoxy-23,24-bisnor-chol-5-en-22-(octanoic acid) amine] | < 4.00 |
| C[C@H](C(=O)NCCC[C@H](NC(=O)OCc1ccccc1)C(=O)O)[C@H]1CC[C@H]2C3CC=C4C[C@@H](O)CC[C@]4(C)[C@H]3CC[C@]12C (stereo partly drawn) [3beta-ol-23,24-bisnor-5-en-22-(5-(2-Z-amino)pentanoic acid) amide] | < 4.00 |
| COC(=O)[C@@H](N)CCCCNC(=O)[C@@H](C)[C@H]1CC[C@H]2C3CC=C4C[C@@H](O)CC[C@]4(C)[C@H]3CC[C@]12C (stereo partly drawn) [3beta-ol-23,24-bisnor-5-en-22-(6-(2-amino) hexanoate ester) amide] | < 4.00 |
| C[C@H](C(=O)NCCCC(=O)O)[C@H]1CC[C@H]2C3CC=C4C[C@@H](O)CC[C@]4(C)[C@H]3CC[C@]12C (stereo partly drawn) [3beta-ol-23,24-bisnor-5-en-22-(butanoic acid) amide] | < 4.00 |
| C[C@H](C(=O)NCC(=O)O)[C@H]1CC[C@H]2C3CC=C4C[C@@H](O)CC[C@]4(C)[C@H]3CC[C@]12C (stereo partly drawn) [3beta-ol-23,24-bisnor-5-en-22-(ethanoic acid) amide] | < 4.00 |
| C[C@H](CNCC(=O)O)[C@H]1CC[C@H]2C3CC=C4C[C@@H](O)CC[C@]4(C)[C@H]3CC[C@]12C (stereo partly drawn) [3beta-ol-23,24-bisnor-5-en-22-(ethanoic acid) amine] | < 4.00 |
| C[C@H](C(=O)NCCCCCC(=O)O)[C@H]1CC[C@H]2C3CC=C4C[C@@H](O)CC[C@]4(C)[C@H]3CC[C@]12C (stereo partly drawn) [3beta-ol-23,24-bisnor-5-en-22-(hexanoic acid) amide] | < 4.00 |
| C[C@H](CNCCCCCC(=O)O)[C@H]1CC[C@H]2C3CC=C4C[C@@H](O)CC[C@]4(C)[C@H]3CC[C@]12C (stereo partly drawn) [3beta-ol-23,24-bisnor-5-en-22-(hexanoic acid) amine] | < 4.00 |
| C[C@H](C(=O)NCCCCCCCC(=O)O)[C@H]1CC[C@H]2C3CC=C4C[C@@H](O)CC[C@]4(C)[C@H]3CC[C@]12C (stereo partly drawn) [3beta-ol-23,24-bisnor-5-en-22-(octanoic acid) amide] | < 4.00 |
| C[C@H](CNCCCCCCCC(=O)O)[C@H]1CC[C@H]2C3CC=C4C[C@@H](O)CC[C@]4(C)[C@H]3CC[C@]12C (stereo partly drawn) [3beta-ol-23,24-bisnor-5-en-22-(octanoic acid) amine] | < 4.00 |
| C[C@H](C(=O)NCCCCC(=O)O)[C@H]1CC[C@H]2C3CC=C4C[C@@H](O)CC[C@]4(C)[C@H]3CC[C@]12C (stereo partly drawn) [3beta-ol-23,24-bisnor-5-en-22-(pentanoic acid) amide] | < 4.00 |
| C[C@H](CNCCCCC(=O)O)[C@H]1CC[C@H]2C3CC=C4C[C@@H](O)CC[C@]4(C)[C@H]3CC[C@]12C (stereo partly drawn) [3beta-ol-23,24-bisnor-5-en-22-(pentanoic acid) amine] | 4.31 |
| C[C@H](C(=O)NCCC(=O)O)[C@H]1CC[C@H]2C3CC=C4C[C@@H](O)CC[C@]4(C)[C@H]3CC[C@]12C (stereo partly drawn) [3beta-ol-23,24-bisnor-5-en-22-(propanoic acid) amide] | < 4.00 |

Biological target: sterol 24-C-methyltransferase (Trypanosoma brucei brucei)
Test: Inhibition of Trypanosoma brucei brucei recombinant 24-SMT

| Structure (SMILES) | pIC50 |
| --- | --- |
| COC(=O)CCCCCCCNC[C@@H](C)[C@H]1CC[C@H]2C3CC=C4C[C@@H](OC(C)=O)CC[C@]4(C)[C@H]3CC[C@]12C (stereo partly drawn) [3beta-acetoxy-23,24-bisnor-chol-5-en-22-(methyl octanoate) amine] | < 4.00 |
